From ChEMBL document CHEMBL4351032, “Design, synthesis, and biological evaluation of 4-((6,7-dimethoxyquinoline-4-yl)oxy)aniline derivatives as FLT3 inhibitors for the treatment of acute myeloid leukemia” (Bioorg Med Chem Lett, 2019) come the findings set out here.

One assay deals with MV4-11. Description: Antiproliferative activity against human MV4-11 cells harboring FLT3-ITD assessed as inhibition of cell growth incubated for 72 hrs by CCK-8 assay. The format is functional, cell-based. The note with it: MV4-11, 72 h.
The target in assay [1] is T1, Receptor-type tyrosine-protein kinase FLT3 (Homo sapiens, UniProt P36888).
T1 sequence (P36888 whole entry): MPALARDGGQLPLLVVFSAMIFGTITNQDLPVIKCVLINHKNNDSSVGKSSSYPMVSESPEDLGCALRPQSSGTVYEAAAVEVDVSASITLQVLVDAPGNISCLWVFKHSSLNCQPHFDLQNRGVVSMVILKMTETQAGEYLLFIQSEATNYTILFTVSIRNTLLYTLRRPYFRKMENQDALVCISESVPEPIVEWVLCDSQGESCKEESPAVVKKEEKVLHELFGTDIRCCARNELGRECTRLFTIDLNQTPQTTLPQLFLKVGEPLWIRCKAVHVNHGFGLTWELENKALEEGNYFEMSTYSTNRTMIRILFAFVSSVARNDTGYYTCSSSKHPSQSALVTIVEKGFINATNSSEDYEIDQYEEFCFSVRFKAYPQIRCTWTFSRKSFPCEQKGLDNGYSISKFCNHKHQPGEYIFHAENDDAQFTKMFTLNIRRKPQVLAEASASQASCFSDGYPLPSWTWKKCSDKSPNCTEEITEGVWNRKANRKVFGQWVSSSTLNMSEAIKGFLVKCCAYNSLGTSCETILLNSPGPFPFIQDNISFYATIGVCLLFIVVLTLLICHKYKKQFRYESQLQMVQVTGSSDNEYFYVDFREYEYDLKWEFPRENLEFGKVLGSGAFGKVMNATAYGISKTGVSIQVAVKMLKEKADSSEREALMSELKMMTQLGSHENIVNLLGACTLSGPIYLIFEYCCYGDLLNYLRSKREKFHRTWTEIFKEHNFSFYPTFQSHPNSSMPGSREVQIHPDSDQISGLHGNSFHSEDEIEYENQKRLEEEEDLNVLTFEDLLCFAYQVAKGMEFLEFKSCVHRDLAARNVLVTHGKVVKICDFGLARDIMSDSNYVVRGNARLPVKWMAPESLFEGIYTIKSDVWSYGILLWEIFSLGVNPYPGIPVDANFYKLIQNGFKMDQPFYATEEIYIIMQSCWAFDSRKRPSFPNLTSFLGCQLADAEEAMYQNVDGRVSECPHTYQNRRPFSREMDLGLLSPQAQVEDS
Description: Inhibition of FLT3 (unknown origin) using peptide as substrate preincubated with enzyme for 10 mins followed by substrate addition further incubated for 1 hr by mobility shift assay.

The test system of assay [2] is HL-60. Kind of assay: Antiproliferative activity against human HL60 cells harboring wild type FLT3 assessed as inhibition of cell growth incubated for 72 hrs by CCK-8 assay. Format: functional, cell-based. As to conditions: HL-60, 72 h.
Assay [3] concerns HL-60. Description: Potency index, ratio of cabozantinib IC50 to compound IC50 for human HL60 cells incubated for 72 hrs by CCK-8 assay. The format is functional. (Tetrazolium dyes change colour on reduction, which living cells bring about.)
The target in assay [4] is T1, Receptor-type tyrosine-protein kinase FLT3. Description: Inhibition of FLT3 (unknown origin).

Take `COc1cc2nccc(Oc3ccc(NC(=O)N/N=C/c4cn(-c5ccccc5F)nn4)cc3)c2cc1OC`: the half-inhibitory concentration (IC50) (commonly the concentration that gives 50% inhibition) was 13.6 µM in the assay with MV4-11, more than 1000 nM in assay [1] and 16.4 µM with HL-60 [2].

In the case of `COc1cc2nccc(Oc3ccc(NC(=O)N/N=C/c4cn(-c5cccc(Cl)c5)nn4)cc3)c2cc1OC`, the IC50 was 13.4 µM with MV4-11, more than 1000 nM in assay [1] and 21.1 µM in the assay with HL-60 [2].

For `COc1cc2nccc(Oc3ccc(NC(=O)N/N=C/c4cn(-c5ccc(F)cc5)nn4)cc3)c2cc1OC`, the IC50 in the assay on MV4-11 worked out at 21.4 µM; in the assay on HL-60 [2], 21.7 µM.

Take `COc1cc2nccc(Oc3ccc(N/C(=N/c4ccc(Cl)c(Cl)c4)C(F)(F)F)cc3)c2cc1OC`: the IC50 with HL-60 [2] is more than 50 µM.

With `COc1cc2nccc(Oc3ccc(N/C(=N/c4cccc(Cl)c4)C(F)(F)F)cc3)c2cc1OC`, the half-inhibitory concentration (IC50) in the assay on HL-60 [2] was more than 50 µM.

As for `COc1cccc(-n2cc(/C=N/NC(=O)Nc3ccc(Oc4ccnc5cc(OC)c(OC)cc45)cc3)nn2)c1`, the IC50 in the assay with MV4-11 was 13.8 µM; in assay [1], more than 1000 nM; in the assay on HL-60 [2], 18.8 µM.

On to `COc1cc2nccc(Oc3ccc(N/C(=N/c4ccc(Cl)c(C(F)(F)F)c4)C(F)(F)F)cc3)c2cc1OC`, for which, in the assay on HL-60 [2], the IC50 was more than 50 µM.

Consider `COc1cc2nccc(Oc3ccc(N/C(=N/c4cccc(C(F)(F)F)c4)C(F)(F)F)cc3)c2cc1OC`, for which, in the assay with HL-60 [2], the half-maximal inhibitory concentration (IC50) is more than 50 µM.

Take `COc1cc2nccc(Oc3ccc(N/C(=N/c4ccc(OC(F)(F)F)cc4)C(F)(F)F)cc3)c2cc1OC`: the IC50 in the assay with HL-60 [2] was 32.7 µM.

Regarding `COc1cc2nccc(Oc3ccc(N/C(=N/c4ccc(F)cc4)C(F)(F)F)cc3)c2cc1OC`, the IC50 with HL-60 [2] amounted to 48.9 µM.

Consider `COc1cc2nccc(Oc3ccc(NC(=O)N/N=C/c4cn(-c5ccccc5OC)nn4)cc3)c2cc1OC`, for which the IC50 in the assay on MV4-11 was 8.29 µM; in assay [1] it was 312 nM; in the assay on HL-60 [2], 14.2 µM.

On to `COc1cc2nccc(Oc3ccc(NC(=O)N/N=C/c4cn(-c5ccccc5)nn4)cc3)c2cc1OC`, for which the IC50 with MV4-11 was 38.7 µM; with HL-60 [2], 41.3 µM.

Turning to `COc1ccc(/N=C(/Nc2ccc(Oc3ccnc4cc(OC)c(OC)cc34)cc2)C(F)(F)F)cc1`, the IC50 in the assay on HL-60 [2] was determined as 36.2 µM.

As to `COc1cc2nccc(Oc3ccc(NC(=O)N/N=C/c4cn(-c5cccc(C(F)(F)F)c5)nn4)cc3)c2cc1OC`, the IC50 in the assay with MV4-11 is 49.1 µM; with HL-60 [2] it was more than 50 µM.

With `COc1ccc(-n2cc(/C=N/NC(=O)Nc3ccc(Oc4ccnc5cc(OC)c(OC)cc45)cc3)nn2)cc1`, the IC50 amounted to 16.3 µM in the assay with MV4-11 and 19.3 µM in the assay with HL-60 [2].

As for `COc1cc2nccc(Oc3ccc(N/C(=N/c4ccc(C)cc4)C(F)(F)F)cc3)c2cc1OC`, the IC50 in the assay with HL-60 [2] was 46.2 µM.

On to `COc1cc2nccc(Oc3ccc(N/C(=N/c4ccc([N+](=O)[O-])cc4)C(F)(F)F)cc3)c2cc1OC`, for which the IC50 in the assay on HL-60 [2] was more than 50 µM.

As for `COc1cc2nccc(Oc3ccc(NC(=O)C4(C(=O)Nc5ccc(F)cc5)CC4)cc3)c2cc1OC` [CABOZANTINIB], the IC50 in the assay with MV4-11 amounted to 15.2 µM; in the assay with HL-60 [2], 22.5 µM.

As to `COc1cc2nccc(Oc3ccc(NC(=O)N/N=C/c4cn(-c5cccc(F)c5)nn4)cc3)c2cc1OC`, in the assay on HL-60 [3], the “Ratio IC50” value was 2.52. Moreover, the IC50 with MV4-11 came to 5.8 µM; in assay [1], 384 nM; in the assay on HL-60 [2] it was 8.91 µM.

With `COc1cc2nccc(Oc3ccc(N/C(=N/c4ccccc4)C(F)(F)F)cc3)c2cc1OC`, the IC50 in the assay on HL-60 [2] was 44.6 µM.

In the case of `COc1cc2nccc(Oc3ccc(NC(=O)N/N=C/c4cn(-c5cccc(C)c5)nn4)cc3)c2cc1OC`, the IC50 in the assay with MV4-11 stood at 19.3 µM; in the assay with HL-60 [2], 25.7 µM.

Regarding `COc1cc2nccc(Oc3ccc(NC(=O)N/N=C/c4cn(-c5ccccc5Cl)nn4)cc3)c2cc1OC`, the IC50 with MV4-11 was 48.4 µM; with HL-60 [2], more than 50 µM.

On to `COc1cc2c(Oc3ccc(NC(=O)c4nn(-c5ccccc5)c(=O)cc4C)cc3F)ccnc2cc1OCCCN1CCOCC1`, for which the IC50 in assay [4] was determined as 9.28 nM.

Turning to `COc1cc2nccc(Oc3ccc(NC(=O)N/N=C/c4cn(-c5ccccc5Br)nn4)cc3)c2cc1OC`, the IC50 in the assay with MV4-11 and with HL-60 [2] was more than 50 µM in each case.
